This is an account of results in article PMC12278462, “Site-selective arylations of nature-inspired flavonoids or steroidal phenols via C—H or O—H activation” (Journal of Enzyme Inhibition and Medicinal Chemistry, 2025).

Each structure is given as a SMILES string. Where two headings read alike, the source gives them in different places.

The target in test [1] is T1, 17β-HSD1 (Homo sapiens, UniProt P14061).
T1 sequence (P14061 1-328): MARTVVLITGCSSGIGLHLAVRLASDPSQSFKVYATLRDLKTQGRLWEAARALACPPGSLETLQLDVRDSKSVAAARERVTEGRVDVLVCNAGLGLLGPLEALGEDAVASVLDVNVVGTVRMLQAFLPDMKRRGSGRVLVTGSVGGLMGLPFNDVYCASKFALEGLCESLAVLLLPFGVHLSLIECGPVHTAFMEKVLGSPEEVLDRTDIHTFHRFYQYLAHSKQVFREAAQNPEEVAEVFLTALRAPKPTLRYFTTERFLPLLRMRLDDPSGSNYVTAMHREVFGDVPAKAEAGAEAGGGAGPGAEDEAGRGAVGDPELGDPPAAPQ
As to the kind of experiment: 17β-HSD1 enzymatic assay (E1 to E2, LC-MS/MS). Type of test: biochemical. Conditions: for inhibition at 10 µM / inhibition at 100 µM: read-out: 17β-HSD1 Inhibition (% ± SD). How it is done:
The bacterial homogenate of E. coli overexpressing HSD17B1 was previously prepared as described in references ^S2,S3, and stored in aliquots at -80 °C. Before conducting experiments, aliquots were quickly thawed and diluted twice with 100 mM sodium phosphate buffer (pH 6.5; #14457, #1411007, Kemika), then kept on ice. The enzymatic assay was performed as described in ^S3. Briefly, a 1 mL enzymatic reaction mixture was prepared in 2 mL microcentrifuge tubes with the following components: 10 µL of the test inhibitor dissolved in dimethyl sulfoxide (DMSO; #276855, Sigma Aldrich) or 10 µL of DMSO for control samples, 5 µL of 14 µM substrate estrone (E1; CAS 53-16-7; #E2300-000, Steraloids), 10 µL of 10 mM NADPH (#AE14, Carl Roth) prepared in 100 mM sodium phosphate buffer, and 965 µL of 100 mM sodium phosphate buffer (pH 6.5). The reaction mixture was mixed thoroughly before adding 10 µL of bacterial homogenate. Immediately after addition, the tubes were transferred to an Eppendorf thermoshaker (#5382000031, Eppendorf) and incubated at 37 °C for 10 minutes. To stop the reaction, 60 µL of 1.26 M ascorbic acid (#A92902, Sigma Aldrich) in methanol (#34966, Honeywell/Riedel-de Haen) /acetic acid (#1.00063, Merck) (99:1, v/v) was added. The samples were then immediately processed using solid-phase extraction (SPE). The assay was repeated in three independent experiments, with each experiment performed in technical duplicate.
The preparation of samples for liquid chromatography-tandem mass spectrometry (LC-MS/MS) involved SPE. Stock solutions of E1 and 17β-estradiol (E2; CAS: 50-28-2; #142406, Steraloids) were prepared gravimetrically and dissolved in methanol (#34966, Honeywell/Riedel-de Haen). A working calibrator solution containing both steroids was then prepared by mixing appropriate volumes of the stock solutions in methanol to achieve a final concentration of 1 µg/mL for each steroid. Eight-point calibration curves (excluding zero and blank) were prepared in 100 mM sodium phosphate buffer (pH 6.5). For each 1 mL reaction mixture or calibrator, 10 µL of 100 ng/mL internal standard solution containing [2,3,4-13C3]-17β-estradiol (#719552, Sigma Aldrich) was added. Samples were mixed thoroughly and incubated at room temperature for 15 minutes.
SPE was performed using Strata X 33 µm polymeric reversed-phase columns (30 mg/mL tubes; #8B-S100-TAK, Phenomenex). The procedure involved the following steps: column conditioning with 1 mL of methanol, column equilibration with 1 mL of H₂O (#1.15333, Supelco), sample loading (1 mL sample or calibrator), column washing with 1 mL of H₂O, column drying under high vacuum for 10 minutes, and finally elution with 1 mL of methanol directly into HPLC glass vials (#702713, Macherey-Nagel GmbH/Co). The eluted samples were stored at -20 °C until LC-MS/MS analysis.

Test [2] relates to MDA-MB-231. As to the kind of experiment: MTT antiproliferative assay, MDA-MB-231. Type of test: cell-based, human. The following applies: for inhibition at 10 µM: MDA-MB-231, 10 µM; for inhibition at 30 µM: MDA-MB-231, 30 µM; for IC50: read-out: calculated IC50 MDA-MB-231. How it is done: (§1) We evaluated the cytotoxic activity of the newly synthesised arylated compounds 13–17 by the MTT assay[37] on a panel of human adherent cancer cell lines. The panel included breast (MCF-7 and MDA MB-231) and cervical (HeLa, SiHa and C33A) cancer cell lines differing in receptorial or HPV status. Tumour selectivity was determined on the NIH/3T3 mouse fibroblast cell line.
(§2) Briefly, the panels of breast and cervical cancerous cell lines, differing by their receptorial and HPV status were used, precisely MCF-7 (ER, PR and HER2 positive) and MDA-MB-231 (TNBC) breast carcinoma and HeLa (HPV18+), SiHa (HPV16+), C33A (HPV-) cervical carcinoma cells. Non-cancerous NIH/3T3 mouse fibroblast cell line was used for selectivity study. MCF-7, MDA-MB-231, Hela and NIH/3T3 cell lines were purchased from ECACC (European Collection of Cell Cultures, Salisbury, UK), while SiHa and C33A from ATCC (American Tissue Culture Collection, LGC Standards GmbH, Wesel, Germany). Cells were maintained in Eagle's Minimum Essential Medium (EMEM, Capricorn Scientific GmbH, Ebsdorfergrund, Germany) supplemented with 10% heat-inactivated fetal bovine serum (FBS), 1% non-essential amino acids (NEAA), and 1% antibiotic-antimycotic mixture (penicillin–streptomycin). The cells were maintained at 37 °C in a humidified atmosphere containing 5% CO2.
(§3) For measurements cells were seeded for 96-well plates at a density of 5 000/well, except for C33A, which was seeded in 10 000cells for each well. After overnight standing cells were treated with 10 and 30 µM solutions for screening and increasing concentrations (0.1-30.0 µM) of the test compounds were used for concentration-response curves. After incubation for 72 hours under cell culturing condition 5 mg/ml MTT (3-(4,5-[…])-2,5-diphenyl-2H-tetrazolium bromide) solution was added for another 4 h. The precipitated formazan crystals were solubilized in DMSO and the absorbance was measured at 545 nm with a microplate reader (BMG Labtech, Ortenberg, Germany). Wells with untreated cells were utilized as control, and inhibition % were calculated by GraphPad Prism v 9.0 software (GraphPad Software, San Diego, CA, USA). If the growth-inhibition exceeded 70% at 30 µM concentration during the screening concentration-response curves were fitted and IC50 values were calculated by GraphPad Prism v 9.0. The experiments were performed with five parallel wells for each experimental condition and repeated at least twice.

The test system of test [3] is SiHa. As to the kind of experiment: MTT antiproliferative assay, SiHa. Type of test: cell-based, human. Conditions: 72 h; for IC50: read-out: calculated IC50 SiHa. How it is done:
as §1, §2, §3

The test system of test [4] is NIH/3T3 mouse fibroblast cell line. The test is described as follows: MTT assay, tumour selectivity on non-cancerous fibroblasts. Type of test: cell-based. The following applies: for inhibition at 10 µM: NIH3T3, 10 µM; for inhibition at 30 µM: NIH3T3, 30 µM; for IC50: read-out: calculated IC50 NIH/3T3. How it is done:
as §1, §2, §3

The subject of test [5] is HeLa. As to the kind of experiment: MTT antiproliferative assay, HeLa. The following applies: 72 h; for IC50: read-out: calculated IC50 HeLa. Type of test: cell-based, human. How it is done: as §1, §2, §3
The subject of test [6] is C33A. As to the kind of experiment: MTT antiproliferative assay, C33A. Type of test: cell-based, human. The following applies: 72 h; for IC50: read-out: calculated IC50 C33A. As to the method: as §1, §2, §3
Test [7] has as its system MCF-7. As to the kind of experiment: MTT antiproliferative assay, MCF-7. Type of test: cell-based, human. Conditions: for inhibition at 10 µM: MCF7, 10 µM; for inhibition at 30 µM: MCF7, 30 µM; for IC50: read-out: calculated IC50 MCF-7. As to the method:
as §1, §2, §3

One may read the inhibition as the drop in the measured response relative to a control, in per cent. With `C[C@@]12CC[C@@H]3c4cc(-c5ccccc5)c(O)cc4CC[C@H]3[C@@H]1CCC2=O` [2-Ph], the inhibition at 10 µM in test [1] (10 µM test concentration) was 54 ± 7.8%. Besides, the inhibition at 100 µM in test [1] (100 µM test concentration) is 59.4 ± 7.8%.
`C[C@@]12CC[C@@H]3c4ccc(O)c(-c5ccccc5)c4CC[C@H]3[C@@H]1CCC2=O` [4-Ph, reference compound]: the inhibition at 10 µM in test [1] (10 µM test concentration) turned out to be 41.4 ± 0.2%. In addition, the inhibition at 100 µM in test [1] (100 µM test concentration) stood at 52.1 ± 17.4%.
In the case of `CN(C)C(=O)Oc1cc2c(c(-c3ccccc3)c1)[C@H]1CC[C@@]3(C)C(=O)CC[C@H]3[C@@H]1CC2` [13a, 3-(N,N-Dimethylcarbamoyloxy)-1-phenyl-13α-estra-1,3,5(10)-triene-17-one], the inhibition at 10 µM in test [2] (Homo sapiens, 72 h) was less than 10%; in test [3] (Homo sapiens, SiHa) it was 13.7%; in test [4] (Mus musculus, 72 h) it was 13.5%; in test [5] (Homo sapiens, HeLa) it was 30.9%; in test [6] (Homo sapiens, C-33-A) it was less than 10%; in test [7] (Homo sapiens, 72 h), 22.5%. Further, the inhibition at 30 µM was found to be 41% in test [2] (Homo sapiens, 72 h); 41% in test [3] (Homo sapiens, SiHa); 22.5% in test [4] (Mus musculus, 72 h); 59.9% in test [5] (Homo sapiens, HeLa); 27.2% in test [6] (Homo sapiens, C-33-A); 52.8% in test [7] (Homo sapiens, 72 h). In addition, the “17β-HSD1 Inhibition (% ± SD)” value in test [1] (10 µM test concentration) is “No inhibition”. Besides, the inhibition at 100 µM in test [1] came out at 33.6 ± 14.9%.
For `CCCCOC1(c2cc(=O)c3c(Oc4ccccc4)cc(O)cc3o2)C=CC(=O)C=C1` [17a, 2-(1-Butoxy-4-oxocyclohexa-2,5-dienyl)-7-hydroxy-5-phenoxy-chromen-4-one], the inhibition at 10 µM was found to be 95.7% in test [2] (Homo sapiens, 72 h); 86.2% in test [3] (Homo sapiens, SiHa); 94.2% in test [4] (Mus musculus, 72 h); 93.6% in test [5] (Homo sapiens, HeLa); 98.1% in test [6] (Homo sapiens, C-33-A); 93.1% in test [7] (Homo sapiens, 72 h). In addition, the inhibition at 30 µM is 96.9% in test [2] (Homo sapiens, 72 h); 95% in test [3] (Homo sapiens, SiHa); 98.7% in test [4] (Mus musculus, 72 h); 94.3% in test [5] (Homo sapiens, HeLa); 98.5% in test [6] (Homo sapiens, C-33-A); 93.7% in test [7] (Homo sapiens, 72 h). Further, the IC50 in test [2] (Homo sapiens, MDA-MB-231, 72 h) is 720 nM; in test [3] (Homo sapiens, SiHa), 1290 nM; in test [4] (Mus musculus, NIH3T3, 72 h), 2330 nM; in test [5] (Homo sapiens, HeLa) it was 1160 nM; in test [6] (Homo sapiens, C-33-A), 430 nM; in test [7] (Homo sapiens, MCF7, 72 h) it was 970 nM.
Regarding `CCCCOC1(c2cc(=O)c3c(Oc4ccc(Br)cc4)cc(O)cc3o2)C=CC(=O)C=C1` [17b, 5-(4-Bromophenoxy)-2-(1-butoxy-4-oxocyclohexa-2,5-dienyl)-7-hydroxy-chromen-4-one], the inhibition at 10 µM in test [2] (Homo sapiens, 72 h) came out at 97%; in test [3] (Homo sapiens, SiHa), 84.5%; in test [4] (Mus musculus, 72 h), 97.5%; in test [5] (Homo sapiens, HeLa) it was 97%; in test [6] (Homo sapiens, C-33-A), 97.7%; in test [7] (Homo sapiens, 72 h) it was 97.4%. In addition, the inhibition at 30 µM in test [2] (Homo sapiens, 72 h) amounted to 97.9%; in test [3] (Homo sapiens, SiHa), 93.8%; in test [4] (Mus musculus, 72 h), 98.6%; in test [5] (Homo sapiens, HeLa), 97.7%; in test [6] (Homo sapiens, C-33-A), 97.8%; in test [7] (Homo sapiens, 72 h), 98.4%. The IC50 is 730 nM in test [2] (Homo sapiens, MDA-MB-231, 72 h); 1390 nM in test [3] (Homo sapiens, SiHa); 1610 nM in test [4] (Mus musculus, NIH3T3, 72 h); 1090 nM in test [5] (Homo sapiens, HeLa); 520 nM in test [6] (Homo sapiens, C-33-A); 1150 nM in test [7] (Homo sapiens, MCF7, 72 h).
On to `N.N.[Cl][Pt][Cl]` [Cisplatin, reference compound], for which the IC50 in test [2] (72 h) was 19100 nM; in test [3] it was 7800 nM; in test [4] (72 h), 4700 nM; in test [5] it was 12400 nM; in test [6] it was 3700 nM; in test [7] (72 h) it was 5800 nM.
`C[C@]12CC[C@H]3C(=CCc4cc(O)ccc43)[C@@H]1CCC2=O` [Equilin, reference compound]: the inhibition at 10 µM in test [1] (10 µM test concentration) turned out to be 85.9 ± 1.6%.
Regarding `C[C@@]12CC[C@@H]3c4c(cc(OCc5cn(Cc6ccccc6)nn5)cc4-c4ccc(Br)cc4)CC[C@H]3[C@@H]1CCC2=O` [compound 16, 3-[{1-Benzyl-1H-1,2,3-triazol-4-yl}methoxy]-1-(4-bromophenyl)-13a-estra-1,3,5 (10)-trien-17-one], the inhibition at 10 µM in test [2] (Homo sapiens, 72 h) was less than 10%; in test [3] (Homo sapiens, SiHa) it was less than 10%; in test [4] (Mus musculus, 72 h) it was less than 10%; in test [5] (Homo sapiens, HeLa), 22.4%; in test [6] (Homo sapiens, C-33-A), less than 10%; in test [7] (Homo sapiens, 72 h) it was less than 10%. The inhibition at 30 µM is less than 10% in test [2] (Homo sapiens, 72 h); 10.4% in test [3] (Homo sapiens, SiHa); 11.2% in test [4] (Mus musculus, 72 h); 33.1% in test [5] (Homo sapiens, HeLa); less than 10% in test [6] (Homo sapiens, C-33-A); less than 10% in test [7] (Homo sapiens, 72 h).
